What all share (assay): Radiolabeled ATP kinase assay, panel of 60 kinases (Table S5)
Common to all, as to format: biochemical

Assay [1] deals with T1, panel of 60 human kinases (Homo sapiens, UniProt Q16288).
T1 construct: purchased Reaction Biology Corp
The note with it: TRKC; 0.1 μM; 10 μM ATP; read-out: % Enzyme Activity (relative to DSMO controls). An outline of the steps: (§1)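 Cell-free radiolabeled-ATP kinase assays across a panel of 60 kinases; each compound tested at 0.1 μM and 0.5 μM for inhibition.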

Assay [2] concerns the target T2, panel of 60 human kinases (Homo sapiens, UniProt O14965).
T2 construct: purchased Reaction Biology Corp
T2 sequence (O14965 1-403): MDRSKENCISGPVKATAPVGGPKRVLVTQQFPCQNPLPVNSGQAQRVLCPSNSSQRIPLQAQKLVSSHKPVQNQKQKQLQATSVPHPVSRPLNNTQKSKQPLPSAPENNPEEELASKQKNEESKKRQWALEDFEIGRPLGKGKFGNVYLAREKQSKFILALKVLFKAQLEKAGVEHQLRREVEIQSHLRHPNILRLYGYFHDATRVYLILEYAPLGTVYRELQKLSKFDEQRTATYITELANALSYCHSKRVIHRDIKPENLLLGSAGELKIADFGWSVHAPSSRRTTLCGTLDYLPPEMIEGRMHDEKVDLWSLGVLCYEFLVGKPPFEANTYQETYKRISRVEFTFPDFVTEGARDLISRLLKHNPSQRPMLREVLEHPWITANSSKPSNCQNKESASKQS
The note with it: Aurora A; 0.1 μM; 10 μM ATP; read-out: % Enzyme Activity (relative to DSMO controls). In short, it runs like this:
as §1

Assay [3] deals with T3, panel of 60 human kinases (Homo sapiens, UniProt P42684).
T3 construct: purchased Reaction Biology Corp
T3 sequence (P42684 whole entry): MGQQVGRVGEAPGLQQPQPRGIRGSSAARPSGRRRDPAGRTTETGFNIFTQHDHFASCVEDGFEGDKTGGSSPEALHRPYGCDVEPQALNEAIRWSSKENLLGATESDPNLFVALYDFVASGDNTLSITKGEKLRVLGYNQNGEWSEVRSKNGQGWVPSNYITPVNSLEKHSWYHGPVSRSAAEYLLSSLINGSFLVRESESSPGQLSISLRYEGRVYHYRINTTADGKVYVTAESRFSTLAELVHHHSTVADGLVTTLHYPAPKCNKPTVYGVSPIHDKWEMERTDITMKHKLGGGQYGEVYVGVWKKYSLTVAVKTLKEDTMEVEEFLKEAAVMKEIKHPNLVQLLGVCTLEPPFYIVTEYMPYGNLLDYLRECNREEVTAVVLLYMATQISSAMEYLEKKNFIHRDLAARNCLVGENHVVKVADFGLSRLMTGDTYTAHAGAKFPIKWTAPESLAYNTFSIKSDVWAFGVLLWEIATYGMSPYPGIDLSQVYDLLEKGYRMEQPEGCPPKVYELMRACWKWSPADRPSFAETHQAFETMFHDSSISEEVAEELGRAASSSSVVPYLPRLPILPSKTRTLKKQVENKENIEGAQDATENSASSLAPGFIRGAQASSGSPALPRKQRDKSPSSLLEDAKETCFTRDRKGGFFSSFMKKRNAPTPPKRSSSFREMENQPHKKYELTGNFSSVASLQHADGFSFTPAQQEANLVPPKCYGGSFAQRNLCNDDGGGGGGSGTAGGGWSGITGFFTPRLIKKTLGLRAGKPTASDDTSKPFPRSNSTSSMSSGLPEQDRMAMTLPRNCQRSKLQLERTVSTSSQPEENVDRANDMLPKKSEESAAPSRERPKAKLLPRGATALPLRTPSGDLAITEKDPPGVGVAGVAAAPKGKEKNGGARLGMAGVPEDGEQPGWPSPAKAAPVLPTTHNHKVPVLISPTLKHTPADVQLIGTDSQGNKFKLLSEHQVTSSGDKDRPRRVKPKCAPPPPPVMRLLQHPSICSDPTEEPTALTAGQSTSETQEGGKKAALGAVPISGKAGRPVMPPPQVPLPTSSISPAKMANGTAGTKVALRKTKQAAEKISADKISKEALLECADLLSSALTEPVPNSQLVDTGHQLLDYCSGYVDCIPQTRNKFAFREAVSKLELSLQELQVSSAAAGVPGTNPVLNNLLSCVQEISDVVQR
The note with it: ABL2/ARG; 0.1 μM; 10 μM ATP; read-out: % Enzyme Activity (relative to DSMO controls). In short, it runs like this: as §1

Assay [4] deals with T4, panel of 60 human kinases (Homo sapiens, UniProt Q00536).
T4 construct: purchased Reaction Biology Corp
T4 sequence (Q00536 whole entry): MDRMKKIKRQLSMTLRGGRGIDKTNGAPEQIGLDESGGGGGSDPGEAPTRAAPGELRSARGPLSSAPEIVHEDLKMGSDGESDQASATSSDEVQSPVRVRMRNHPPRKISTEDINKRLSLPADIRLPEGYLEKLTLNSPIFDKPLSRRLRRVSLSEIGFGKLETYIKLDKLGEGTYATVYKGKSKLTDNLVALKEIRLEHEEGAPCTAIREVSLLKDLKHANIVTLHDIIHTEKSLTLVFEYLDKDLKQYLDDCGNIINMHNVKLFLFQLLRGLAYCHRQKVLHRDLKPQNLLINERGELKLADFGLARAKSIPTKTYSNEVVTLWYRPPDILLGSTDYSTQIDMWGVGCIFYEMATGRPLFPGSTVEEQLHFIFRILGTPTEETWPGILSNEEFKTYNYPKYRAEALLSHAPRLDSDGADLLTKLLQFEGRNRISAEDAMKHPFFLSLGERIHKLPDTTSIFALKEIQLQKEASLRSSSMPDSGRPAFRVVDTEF
The note with it: CDK16/cyclin Y (PCTAIRE); 0.1 μM; 10 μM ATP; read-out: % Enzyme Activity (relative to DSMO controls). An outline of the steps:
as §1

Assay [5] has as its target T5, panel of 60 human kinases (Homo sapiens, UniProt Q00526).
T5 construct: purchased Reaction Biology Corp
The note with it: CDK3/cyclin E; 0.1 μM; 10 μM ATP; read-out: % Enzyme Activity (relative to DSMO controls). An outline of the steps:
as §1

Assay [6] concerns the target T6, panel of 60 human kinases (Homo sapiens, UniProt P22607).
T6 construct: purchased Reaction Biology Corp
The note with it: FGFR3; 0.1 μM; 10 μM ATP; read-out: % Enzyme Activity (relative to DSMO controls). In short, it runs like this:
as §1

In assay [7] the target is T7, panel of 60 human kinases (Homo sapiens, UniProt Q96GD4).
T7 construct: purchased Reaction Biology Corp
T7 sequence (Q96GD4 whole entry): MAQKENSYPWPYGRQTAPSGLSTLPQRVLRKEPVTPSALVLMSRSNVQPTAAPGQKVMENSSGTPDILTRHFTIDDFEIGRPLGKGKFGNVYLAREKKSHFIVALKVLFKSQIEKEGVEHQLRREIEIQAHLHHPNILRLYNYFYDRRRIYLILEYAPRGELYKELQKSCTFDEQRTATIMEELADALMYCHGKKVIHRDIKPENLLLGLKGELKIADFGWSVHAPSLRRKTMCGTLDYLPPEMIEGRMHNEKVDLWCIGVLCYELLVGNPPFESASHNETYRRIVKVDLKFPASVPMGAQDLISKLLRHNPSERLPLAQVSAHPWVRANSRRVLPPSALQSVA
The note with it: Aurora B; 0.1 μM; 10 μM ATP; read-out: % Enzyme Activity (relative to DSMO controls). In short, it runs like this: as §1

Assay [8] deals with T8, panel of 60 human kinases (Homo sapiens, UniProt Q12851).
T8 construct: purchased Reaction Biology Corp
T8 sequence (Q12851 1-820): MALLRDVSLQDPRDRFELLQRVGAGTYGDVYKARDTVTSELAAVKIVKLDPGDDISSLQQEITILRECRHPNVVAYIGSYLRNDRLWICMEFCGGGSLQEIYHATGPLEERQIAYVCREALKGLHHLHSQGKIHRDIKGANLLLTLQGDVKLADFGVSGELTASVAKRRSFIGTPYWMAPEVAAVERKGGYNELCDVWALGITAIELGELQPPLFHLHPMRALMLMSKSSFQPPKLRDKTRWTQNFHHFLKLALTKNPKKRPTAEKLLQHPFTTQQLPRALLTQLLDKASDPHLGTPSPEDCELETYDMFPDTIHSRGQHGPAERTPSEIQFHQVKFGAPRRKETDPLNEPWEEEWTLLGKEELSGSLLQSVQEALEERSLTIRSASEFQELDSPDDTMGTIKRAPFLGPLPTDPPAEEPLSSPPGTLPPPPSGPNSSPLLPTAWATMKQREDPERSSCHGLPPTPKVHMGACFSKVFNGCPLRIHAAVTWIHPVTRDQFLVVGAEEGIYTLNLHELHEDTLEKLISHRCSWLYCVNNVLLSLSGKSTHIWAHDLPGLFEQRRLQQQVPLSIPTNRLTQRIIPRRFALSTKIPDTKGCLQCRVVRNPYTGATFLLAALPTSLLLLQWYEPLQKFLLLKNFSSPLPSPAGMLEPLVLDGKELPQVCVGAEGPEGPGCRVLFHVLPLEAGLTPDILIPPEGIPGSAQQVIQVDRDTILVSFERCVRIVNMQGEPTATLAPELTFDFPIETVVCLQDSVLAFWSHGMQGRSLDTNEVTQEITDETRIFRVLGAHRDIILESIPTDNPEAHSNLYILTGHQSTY
The note with it: GCK/MAP4K1; 0.1 μM; 10 μM ATP; read-out: % Enzyme Activity (relative to DSMO controls). An outline of the steps:
as §1

The record followed here is patent US12227500B2, “Substituted pyrrolo[2,3-b]pyridines for suppressing toxic endoplasmic reticulum stress” (THE TRUSTEES OF COLUMBIA UNIVERSITY IN THE CITY OF NEW YORK, priority 2018, dated 2025).

T1 sequence (Q16288 32-839): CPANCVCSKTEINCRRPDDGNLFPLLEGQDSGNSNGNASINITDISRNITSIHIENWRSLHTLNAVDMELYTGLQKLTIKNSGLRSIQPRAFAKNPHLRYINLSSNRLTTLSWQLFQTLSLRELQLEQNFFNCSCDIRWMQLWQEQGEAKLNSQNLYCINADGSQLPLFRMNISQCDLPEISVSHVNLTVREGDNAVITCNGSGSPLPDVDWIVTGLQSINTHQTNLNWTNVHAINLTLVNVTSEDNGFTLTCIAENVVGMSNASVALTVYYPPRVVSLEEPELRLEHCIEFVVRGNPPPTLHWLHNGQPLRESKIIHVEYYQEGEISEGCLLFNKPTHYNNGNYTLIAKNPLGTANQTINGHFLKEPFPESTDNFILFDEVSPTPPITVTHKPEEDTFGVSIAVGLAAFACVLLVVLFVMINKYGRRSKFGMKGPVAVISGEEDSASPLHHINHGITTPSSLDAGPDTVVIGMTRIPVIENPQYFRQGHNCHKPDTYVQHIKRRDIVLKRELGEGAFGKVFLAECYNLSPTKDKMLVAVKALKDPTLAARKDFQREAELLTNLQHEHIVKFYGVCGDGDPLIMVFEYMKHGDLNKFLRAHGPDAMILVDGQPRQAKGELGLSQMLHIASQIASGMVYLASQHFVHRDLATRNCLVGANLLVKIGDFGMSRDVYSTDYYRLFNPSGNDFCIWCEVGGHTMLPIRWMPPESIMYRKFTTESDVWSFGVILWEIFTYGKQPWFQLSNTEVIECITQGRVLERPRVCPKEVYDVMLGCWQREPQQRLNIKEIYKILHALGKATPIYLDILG
T5 sequence (Q00526 whole entry): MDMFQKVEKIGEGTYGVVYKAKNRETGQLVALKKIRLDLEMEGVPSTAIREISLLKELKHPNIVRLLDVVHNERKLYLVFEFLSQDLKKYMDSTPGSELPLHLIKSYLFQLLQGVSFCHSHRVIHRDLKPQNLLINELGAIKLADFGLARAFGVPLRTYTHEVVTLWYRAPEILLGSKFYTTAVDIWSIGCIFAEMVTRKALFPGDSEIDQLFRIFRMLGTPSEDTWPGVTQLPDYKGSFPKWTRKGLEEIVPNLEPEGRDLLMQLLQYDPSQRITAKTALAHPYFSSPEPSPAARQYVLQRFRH
T6 sequence (P22607 23-806): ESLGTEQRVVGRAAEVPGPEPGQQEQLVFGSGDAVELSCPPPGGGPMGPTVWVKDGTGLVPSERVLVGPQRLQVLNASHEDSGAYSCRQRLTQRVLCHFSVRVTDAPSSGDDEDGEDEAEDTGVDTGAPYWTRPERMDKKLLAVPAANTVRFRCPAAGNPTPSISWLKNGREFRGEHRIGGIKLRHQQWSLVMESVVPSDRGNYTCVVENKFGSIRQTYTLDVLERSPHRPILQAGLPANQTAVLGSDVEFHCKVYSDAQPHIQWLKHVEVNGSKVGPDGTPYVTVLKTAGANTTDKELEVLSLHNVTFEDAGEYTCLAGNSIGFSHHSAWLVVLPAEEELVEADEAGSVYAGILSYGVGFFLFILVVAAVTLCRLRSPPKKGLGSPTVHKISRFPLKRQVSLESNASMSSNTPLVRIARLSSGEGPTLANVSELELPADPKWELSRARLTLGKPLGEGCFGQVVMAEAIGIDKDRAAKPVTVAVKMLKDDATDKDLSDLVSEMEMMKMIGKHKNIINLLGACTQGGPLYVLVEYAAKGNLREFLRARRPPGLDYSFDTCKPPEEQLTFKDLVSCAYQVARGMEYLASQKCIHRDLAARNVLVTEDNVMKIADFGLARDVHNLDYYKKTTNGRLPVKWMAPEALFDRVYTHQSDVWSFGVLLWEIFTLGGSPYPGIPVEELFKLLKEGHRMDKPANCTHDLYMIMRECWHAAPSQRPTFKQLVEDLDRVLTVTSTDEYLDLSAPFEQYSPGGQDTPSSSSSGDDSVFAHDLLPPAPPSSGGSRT

Take `CN1CCN(Cc2ccc(-c3cnc4[nH]cc(-c5ccc6[nH]ccc6c5)c4c3)cc2)CC1` [Compound 1, 3-(1H-Indol-5-yl)-5-(4-((4-methylpiperazin-1-yl)methyl)phenyl)-1H-pyrrolo[2,3-b]pyridine, reference compound]: the remaining activity at 0.1 µM in assay [1] turned out to be 6.69%; in assay [2], 81.4%; in assay [3] it was 54.9%; in assay [4], 94.9%; in assay [5], 89.1%; in assay [6], 43.5%. Moreover, the remaining activity at 0.1 µM in assay [7] was determined as 88.8%; in assay [8], 27.5%.

On to `CN1CCN(Cc2ccc(-c3cnc4[nH]cc(-c5cccc(Cl)c5)c4c3)cc2)CC1` [Compound 7ad, 3-(3-Chlorophenyl)-5-(4-((4-methylpiperazin-1-yl)methyl)phenyl)-1H-pyrrolo[2,3-b]pyridine], for which the remaining activity at 0.1 µM in assay [1] is 51.2%; in assay [2] it was 97.3%; in assay [3] it was 83.7%; in assay [4], 96.9%; in assay [5] it was 95.5%; in assay [6], 70.1%. For the same compound, the values for the remaining activity at 0.1 µM in assay [7] and in assay [8] were 91.8% and 8.09%, respectively.

Turning to `CN1CCN(Cc2ccc(-c3cnc4[nH]cc(-c5cnn(Cc6ccccc6)c5)c4c3)cc2)CC1` [Compound 7ah, 3-(1-Benzyl-1H-pyrazol-4-yl)-5-(4-((4-methylpiperazin-1-yl)methyl)phenyl)-1H-pyrrolo[2,3-b]pyridine], the remaining activity at 0.1 µM in assay [1] came out at 9.83%; in assay [2], 48.4%; in assay [3] it was 95.1%; in assay [4], 8.19%; in assay [5], 65.2%; in assay [6], 76.6%. In addition, the results for the remaining activity at 0.1 µM in assay [7] and in assay [8] were 69.9% and 10.1%, respectively.

Take `Cc1nn(C)c(C)c1-c1c[nH]c2ncc(-c3ccc(CN4CCN(C)CC4)cc3)cc12` [Compound 7ai, 5-(4-((4-Methylpiperazin-1-yl)methyl)phenyl)-3-(1,3,5-trimethyl-1H-pyrazol-4-yl)-1H-pyrrolo[2,3-b]pyridine]: the remaining activity at 0.1 µM in assay [1] was 13.1%; in assay [2], 95.5%; in assay [3], 44.4%; in assay [4] it was 87.7%; in assay [5] it was 96%; in assay [6] it was 82%. The remaining activity at 0.1 µM in assay [7] came out at 99%; in assay [8], 53.8%.

Consider `CN1CCN(Cc2ccc(-c3cnc4[nH]cc(-c5ccccc5Cl)c4c3)cc2)CC1` [Compound 7as, 3-(2-Chlorophenyl)-5-(4-((4-methylpiperazin-1-yl)methyl)phenyl)-1H-pyrrolo[2,3-b]pyridine], for which the remaining activity at 0.1 µM in assay [1] turned out to be 6.32%; in assay [2] it was 81.1%; in assay [3] it was 0.99%; in assay [4], 75.2%; in assay [5], 85.5%; in assay [6] it was 42.3%. Besides, the figures for the remaining activity at 0.1 µM in assay [7] and in assay [8] were 82.5% and 8.85%, respectively.

As to `COc1ccccc1-c1c[nH]c2ncc(-c3ccc(CN4CCN(C)CC4)cc3)cc12` [Compound 7at, 3-(2-Methoxyphenyl)-5-(4-((4-methylpiperazin-1-yl)methyl)phenyl)-1H-pyrrolo[2,3-b]pyridine], the remaining activity at 0.1 µM in assay [1] was 34.8%; in assay [2], 90.2%; in assay [3], 21.8%; in assay [4], 76.9%; in assay [5], 72.7%; in assay [6], 82.1%. In addition, the figures for the remaining activity at 0.1 µM in assay [7] and in assay [8] were 87.8% and 12.3%, respectively.

Regarding `CN1CCN(Cc2ccc(-c3cnc4[nH]cc(-c5ccc6c(c5)OCCO6)c4c3)cc2)CC1` [Compound 7d, 3-(2,3-Dihydrobenzo[b][1,4]dioxin-6-yl)-5-(4-((4-methylpiperazin-1-yl)methyl)phenyl)-1H-pyrrolo[2,3-b]pyridine], the remaining activity at 0.1 µM was 17.7% in assay [1]; 74.8% in assay [2]; 72.7% in assay [3]; 58% in assay [4]; 76.7% in assay [5]; 73.4% in assay [6]. Further, the figures for the remaining activity at 0.1 µM in assay [7] and in assay [8] were 83.5% and 13.1%, respectively.

As to `CN1CCN(Cc2ccc(-c3cnc4[nH]cc(-c5ccncc5)c4c3)cc2)CC1` [Compound 7n, 5-(4-((4-Methylpiperazin-1-yl)methyl)phenyl)-3-(pyridin-4-yl)-1H-pyrrolo[2,3-b]pyridine], the remaining activity at 0.1 µM in assay [1] came out at 25.4%; in assay [2], 96.4%; in assay [3] it was 91.5%; in assay [4] it was 21.5%; in assay [5], 72.3%; in assay [6], 85.9%. Besides, the remaining activity at 0.1 µM in assay [7] turned out to be 86.9%; in assay [8], 59.6%.

For the compound `CN1CCN(Cc2ccc(-c3cnc4[nH]cc(-c5ccoc5)c4c3)cc2)CC1` [Compound 7w, 3-(Furan-3-yl)-5-(4-((4-methylpiperazin-1-yl)methyl)phenyl)-1H-pyrrolo[2,3-b]pyridine], the remaining activity at 0.1 µM in assay [1] was found to be 25.8%; in assay [2], 83.9%; in assay [3], 77.6%; in assay [4], 80.8%; in assay [5], 93.7%; in assay [6] it was 70.7%. Also, the remaining activity at 0.1 µM worked out at 89.9% in assay [7] and 33.6% in assay [8].
